≈ marks a conversion by molar mass, not a printed value. Like-named read-outs stand apart in the source and are kept apart here.
Tests used:
Experiment in all cases: agar serial dilution test (MIC)
Assay type in all cases: cell-based
K. pneumoniae K8 = conditions: Klebsiella pneumoniae
Description: (§1) The antibiotic activity in vitro of some compounds according to the invention and of some previously known compounds was tested by means of an agar serial dilution test. The following compounds were tested: 7β-[2-(2-Aminothiazol-4-yl)-2-diethylphosphoryloxyiminoacetamido] cephalosporanic acid (designated ES 643, 7β-[2-(2-amino- thiazol-4-yl)-2-dimethylphosphoryloxyiminoacetamido] cephalosporanic acid (designated ES 671), 7β-[2-(2-amino- thiazol-4-yl)-2-dimorpholinophosphoryloxyiminoacetamido] cephalosporanic acid (designated ES 656), 7β-[2-(2-amino- thiazol-4-yl)-2-methylmethylphosphonyloxyiminoacetamido] cephalosporanic acid (designated ES 682), 7β-[2-(2-amino- thiazol-4-yl)-2-hydroxyiminoacetamido] cephalosporanic acid (designated A), cefuroxime (designated B), and cephalotin (designated C). MIC designates minimum inhibitory concentration.

P. mirabilis 2311 = system: P. mirabilis 2311
Description: as §1

S. albus 3348 = system: S. albus 3348
Description: as §1

S. aureus 13709 = system: S. aureus 13709
Description: as §1

P. vulgaris 5209 = system: P. vulgaris 5209
Description: as §1

S. albus 3578 = system: S. albus 3578
Description: as §1

P. morganii 69 = system: P. morganii 69
Description: as §1

S. pyogenes 12384 = system: S. pyogenes 12384
Description: as §1

E. coli 04 = system: E. coli 04
Description: as §1

E. coli 01 = system: E. coli 01
Description: as §1

S. albus 12228 = system: S. albus 12228
Description: as §1

P. vulgaris 17028 = system: P. vulgaris 17028
Description: as §1

P. mirabilis 2255 = system: P. mirabilis 2255
Description: as §1

P. mirabilis 682 = system: P. mirabilis 682
Description: as §1

S. aureus 3349 = system: S. aureus 3349
Description: as §1

K. edwardsii K1 = system: K. edwardsii K1
Description: as §1

S. pyogenes 12334 = system: S. pyogenes 12334
Description: as §1

P. morganii 18 = system: P. morganii 18
Description: as §1

S. aureus 3356 = system: S. aureus 3356
Description: as §1

P. vulgaris 16868 = system: P. vulgaris 16868
Description: as §1

S. aureus 209P = conditions: Staphylococcus aureus
Description: as §1

[1] = K. pneumoniae K8, read-out: MIC value
[2] = Proteus mirabilis, P. mirabilis 2311, read-out: MIC value
[3] = Staphylococcus albus, S. albus 3348, read-out: MIC value
[4] = Staphylococcus aureus, S. aureus 13709, read-out: MIC value
[5] = Proteus vulgaris, P. vulgaris 5209, read-out: MIC value
[6] = Staphylococcus albus, S. albus 3578, read-out: MIC value
[7] = Morganella morganii, P. morganii 69, read-out: MIC value
[8] = Streptococcus pyogenes, S. pyogenes 12384, read-out: MIC value
[9] = Escherichia coli, E. coli 04, read-out: MIC value
[10] = Escherichia coli, E. coli 01, read-out: MIC value
[11] = Staphylococcus albus, S. albus 12228, read-out: MIC value
[12] = Proteus vulgaris, P. vulgaris 17028, read-out: MIC value
[13] = Proteus mirabilis, P. mirabilis 2255, read-out: MIC value
[14] = Proteus mirabilis, P. mirabilis 682, read-out: MIC value
[15] = Staphylococcus aureus, S. aureus 3349*, penicillin-resistant strain, read-out: MIC value
[16] = K. edwardsii K1, read-out: MIC value
[17] = Streptococcus pyogenes, S. pyogenes 12334, read-out: MIC value
[18] = Morganella morganii, P. morganii 18, read-out: MIC value
[19] = Staphylococcus aureus, S. aureus 3356*, penicillin-resistant strain, read-out: MIC value
[20] = Proteus vulgaris, P. vulgaris 16868, read-out: MIC value
[21] = S. aureus 209P, read-out: MIC value

CC(=O)OCC1=C(C(=O)O)N2C(=O)C(NC(=O)C(=NO)c3csc(N)n3)C2SC1 (stereo not drawn) [A, 7β-[2-(2-amino-thiazol-4-yl)-2-hydroxyiminoacetamido] cephalosporanic acid, reference compound]
MIC (K. pneumoniae K8; [1]): 0.4 µg/mL (≈ 0.906 µM) | MIC (P. mirabilis 2311; [2]): < 0.1 µg/mL | MIC (S. albus 3348; [3]): 0.8 µg/mL (≈ 1.81 µM) | MIC (S. aureus 13709; [4]): 1.6 µg/mL (≈ 3.62 µM) | MIC (P. vulgaris 5209; [5]): 6.2 µg/mL (≈ 14 µM) | MIC (S. albus 3578; [6]): 0.8 µg/mL (≈ 1.81 µM) | MIC (P. morganii 69; [7]): 0.2 µg/mL (≈ 0.453 µM) | MIC (S. pyogenes 12384; [8]): < 0.1 µg/mL | MIC (E. coli 04; [9]): 0.2 µg/mL (≈ 0.453 µM) | MIC (E. coli 01; [10]): < 0.1 µg/mL | MIC (S. albus 12228; [11]): 0.8 µg/mL (≈ 1.81 µM) | MIC (P. vulgaris 17028; [12]): 0.8 µg/mL (≈ 1.81 µM) | MIC (P. mirabilis 2255; [13]): < 0.1 µg/mL | MIC (P. mirabilis 682; [14]): < 0.1 µg/mL | MIC (S. aureus 3349; [15]): 1.6 µg/mL (≈ 3.62 µM) | MIC (K. edwardsii K1; [16]): 0.2 µg/mL (≈ 0.453 µM) | MIC (S. pyogenes 12334; [17]): < 0.1 µg/mL | MIC (P. morganii 18; [18]): 0.2 µg/mL (≈ 0.453 µM) | MIC (S. aureus 3356; [19]): 0.8 µg/mL (≈ 1.81 µM) | MIC (P. vulgaris 16868; [20]): 1.6 µg/mL (≈ 3.62 µM) | MIC (S. aureus 209P; [21]): 1.6 µg/mL (≈ 3.62 µM)

CO/N=C(\C(=O)N[C@@H]1C(=O)N2C(C(=O)O)=C(COC(N)=O)CS[C@H]12)c1ccco1 [B, cefuroxime, reference compound]
MIC (K. pneumoniae K8; [1]): 12.5 µg/mL (≈ 29.5 µM) | MIC (P. mirabilis 2311; [2]): 0.8 µg/mL (≈ 1.89 µM) | MIC (S. albus 3348; [3]): 0.2 µg/mL (≈ 0.471 µM) | MIC (S. aureus 13709; [4]): 0.8 µg/mL (≈ 1.89 µM) | MIC (P. vulgaris 5209; [5]): > 100 µg/mL | MIC (S. albus 3578; [6]): 0.2 µg/mL (≈ 0.471 µM) | MIC (P. morganii 69; [7]): 25 µg/mL (≈ 58.9 µM) | MIC (S. pyogenes 12384; [8]): < 0.1 µg/mL | MIC (E. coli 04; [9]): 6.2 µg/mL (≈ 14.6 µM) | MIC (E. coli 01; [10]): 3.1 µg/mL (≈ 7.3 µM) | MIC (S. albus 12228; [11]): 0.4 µg/mL (≈ 0.943 µM) | MIC (P. vulgaris 17028; [12]): > 100 µg/mL | MIC (P. mirabilis 2255; [13]): 1.6 µg/mL (≈ 3.77 µM) | MIC (P. mirabilis 682; [14]): 3.1 µg/mL (≈ 7.3 µM) | MIC (S. aureus 3349; [15]): 0.8 µg/mL (≈ 1.89 µM) | MIC (K. edwardsii K1; [16]): 6.2 µg/mL (≈ 14.6 µM) | MIC (S. pyogenes 12334; [17]): < 0.1 µg/mL | MIC (P. morganii 18; [18]): 25 µg/mL (≈ 58.9 µM) | MIC (S. aureus 3356; [19]): 0.8 µg/mL (≈ 1.89 µM) | MIC (P. vulgaris 16868; [20]): > 100 µg/mL | MIC (S. aureus 209P; [21]): 1.6 µg/mL (≈ 3.77 µM)

CC(=O)OCC1=C(C(=O)O)N2C(=O)[C@@H](NC(=O)Cc3cccs3)[C@H]2SC1 [C, cephalotin, reference compound]
MIC (K. pneumoniae K8; K8, read-out: MIC value in μg/ml): 50 µg/mL (≈ 126 µM) | MIC (P. mirabilis 2311; Proteus mirabilis, 2311, read-out: MIC value in μg/ml): 12.5 µg/mL (≈ 31.5 µM) | MIC (S. albus 3348; Staphylococcus albus, 3348, read-out: MIC value in μg/ml): < 0.1 µg/mL | MIC (S. aureus 13709; Staphylococcus aureus, 13709, read-out: MIC value in μg/ml): 0.4 µg/mL (≈ 1.01 µM) | MIC (P. vulgaris 5209; Proteus vulgaris, 5209, read-out: MIC value in μg/ml): > 100 µg/mL | MIC (S. albus 3578; Staphylococcus albus, 3578, read-out: MIC value in μg/ml): < 0.1 µg/mL | MIC (P. morganii 69; Morganella morganii, 69, read-out: MIC value in μg/ml): > 100 µg/mL | MIC (S. pyogenes 12384; Streptococcus pyogenes, 12384, read-out: MIC value in μg/ml): < 0.1 µg/mL | MIC (E. coli 04; Escherichia coli, 04, read-out: MIC value in μg/ml): 12.5 µg/mL (≈ 31.5 µM) | MIC (E. coli 01; Escherichia coli, 01, read-out: MIC value in μg/ml): 6.2 µg/mL (≈ 15.6 µM) | MIC (S. albus 12228; Staphylococcus albus, 12228, read-out: MIC value in μg/ml): 0.2 µg/mL (≈ 0.504 µM) | MIC (P. vulgaris 17028; Proteus vulgaris, 17028, read-out: MIC value in μg/ml): > 100 µg/mL | MIC (P. mirabilis 2255; Proteus mirabilis, 2255, read-out: MIC value in μg/ml): 3.1 µg/mL (≈ 7.82 µM) | MIC (P. mirabilis 682; Proteus mirabilis, 682, read-out: MIC value in μg/ml): 6.2 µg/mL (≈ 15.6 µM) | MIC (S. aureus 3349; Staphylococcus aureus, 3349, read-out: MIC value in μg/ml): 0.4 µg/mL (≈ 1.01 µM) | MIC (K. edwardsii K1; read-out: MIC value in μg/ml): 0.2 µg/mL (≈ 0.504 µM) | MIC (S. pyogenes 12334; Streptococcus pyogenes, 12334, read-out: MIC value in μg/ml): < 0.1 µg/mL | MIC (P. morganii 18; Morganella morganii, 18, read-out: MIC value in μg/ml): > 100 µg/mL | MIC (S. aureus 3356; Staphylococcus aureus, 3356, read-out: MIC value in μg/ml): < 0.1 µg/mL | MIC (P. vulgaris 16868; Proteus vulgaris, 16868, read-out: MIC value in μg/ml): > 100 µg/mL | MIC (S. aureus 209P; 209P, read-out: MIC value in μg/ml): < 0.1 µg/mL

— EP0018155A2, “Novel cephalosporin compounds, a process for the preparation thereof, pharmaceutical compositions containing the same and the use thereof as a therapeutic agent against a microorganism” (NOVO NORDISK A/S, priority 1979, dated 1980)
